The text below walks through data of patent US10995101B2, “2-oxo-thiazole derivatives as A2A inhibitors and compounds for use in the treatment of cancers” (iTeos Therapeutics SA, priority 2017, dated 2021).

As a reminder, the IC50 is the concentration at which inhibition is half-maximal. Higher therefore signals a need for much substance. What is called efflux ratio is the permeability from basolateral to apical divided by that in the opposite direction, in the common usage.

The structures appear in SMILES notation.

The target of data set [1] is A2A receptor (Homo sapiens, UniProt P29274). The data set can be described thus: Inhibition of cAMP production in HEK cells. Format: cell-based. The settings on record: HEK-293 cells with A2A receptor. On the technique in general: Changes in cAMP serve as a functional read-out for many G protein-coupled receptors.
Chain of A2A receptor (P29274 whole entry): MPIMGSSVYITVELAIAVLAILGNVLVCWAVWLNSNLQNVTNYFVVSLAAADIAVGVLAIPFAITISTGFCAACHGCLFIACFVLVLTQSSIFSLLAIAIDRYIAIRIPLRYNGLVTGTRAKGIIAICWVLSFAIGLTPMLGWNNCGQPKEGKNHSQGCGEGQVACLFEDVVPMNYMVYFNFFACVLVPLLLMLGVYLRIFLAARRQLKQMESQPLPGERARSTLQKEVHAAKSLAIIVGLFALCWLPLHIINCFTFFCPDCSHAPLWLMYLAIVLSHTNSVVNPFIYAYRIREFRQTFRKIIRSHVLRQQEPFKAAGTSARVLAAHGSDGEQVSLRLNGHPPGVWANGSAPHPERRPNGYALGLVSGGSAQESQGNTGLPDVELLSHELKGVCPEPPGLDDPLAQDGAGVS
Data set [2] can be described thus: in vitro. The settings on record: human, Caco-2, pH 7.4.
Procedure: 2 μM dosing solutions for reference compounds and test compounds are prepared by spiking the appropriate volume of intermediate solution to TB with and without 1 μM Zosuquidar. The final concentration of DMSO is no more than 1% (v/v).
Caco-2 cells are grown in MEM supplemented with 2 mM L-glutamine, 10% FBS, 100 U/mL penicillin-G and 100 μg/mL streptomycin. The cells are incubated at 37° C., 5% CO2 and relatively saturated humidity. After reaching 80-90% confluency, the cells are gently detached with 0.05% trypsin-EDTA solution.
TB and dosing solutions were pre-warmed to 37° C. before transport assay. The cell monolayer was washed twice with HBSS containing 10 mM HEPES. For A-B (apical to basolateral) directional transport assay, 75 μL dosing solution is added to the apical well. Fill each basolateral well with 250 μL TB. For B-A (basolateral to apical) directional transport assay, 250 μL of dosing solution is added to the basolateral well after filling each apical well with 75 μL TB. […] The plates are incubated for 120 minutes at 37° C. with 5% CO2 and saturated humidity. The time zero samples are generated by mixing 50 μL initial dosing solution of test compound or reference compound with 100 μL TB and 250 μL quench solution (acetonitrile (ACN) or other appropriate solvent with internal standard(s), based on the bioanalytical method development). At 120 minutes, 150 μL of solution is collected from each A-B receiver well followed by addition of 250 μL quench solution to get A-B receiver sample. And for other samples (A-B donor, B-A donor and receiver), 50 μL of solution is collected from each corresponding well followed by addition of 250 μL quench solution and 100 μL TB. All samples are vortex-mixed and centrifuged at 3220 g for 20 minutes. Subsequently, supernatant is diluted with ultra pure water for LC-MS/MS analysis. The concentrations of test compound in all samples are determined by LC-MS/MS and expressed as peak area ratio of analyte to internal standard.
The concentration of samples is expressed using the peak area ratio of Analyte to Internal Standard (Analyte/IS).
The efflux ratio is calculated using the following equation: Efflux ratio=Papp(A−B)/Papp(B−A) • where Papp (A−B) and Papp (B−A) are the Papp values of compound in Apical to Basolateral and Basolateral to Apical directional transport, respectively.
The mark [3] stands for this setting: IC50 (nM) (3 nM NECA as agonist, 0.1% BSA), 3 nM NECA as agonist, 0.1% BSA.
Where [4] appears, read: IC50 (nM) (5 nM NECA as agonist, 2% HSA), 5 nM NECA as agonist, 2% HSA.
The mark [5] stands for this setting: IC50 (nM) (5 μM Adenosine as agonist, 2.0% HSA), 5 μM Adenosine as agonist, 2.0% HSA.

`NC(=O)COc1ccc(N2CCN(CCn3c(=O)sc4c3nc(N)n3nc(-c5ccco5)nc43)CC2)c(F)c1` [Compound 54, 2-(4-(4-(2-(5-amino-8-(furan-2-yl)-2-oxothiazolo[5,4-e][1,2,4]triazolo[1,5-c]pyrimidin-3(2H)-yl)ethyl)piperazin-1-yl)-3-fluorophenoxy)acetamide]: the 50% inhibitory concentration (IC50) in data set [1] (setting [3]) was 0.8 nM; in data set [1] (setting [4]), 3 nM; in data set [1] (setting [5]), 138 nM. Also, the efflux ratio at 120 min, 2 μM in data set [2] worked out at 24.
The like results for `CNCCN(C)C(=O)c1ccc(N2CCN(CCn3c(=O)sc4c3nc(N)n3nc(-c5ccco5)nc43)CC2)c(F)c1` [Compound 55, 4-(4-(2-(5-amino-8-(furan-2-yl)-2-oxothiazolo[5,4-e][1,2,4]triazolo[1,5-c]pyrimidin-3(2H)-yl)ethyl)piperazin-1-yl)-3-fluoro-N-methyl-N-(2-(methylamino)ethyl)benzamide] were, in that order, 1 nM, 2 nM, 141 nM and 205.
Taken in the same sequence, the figures for `CN(C)CCN(C)C(=O)c1ccc(N2CCN(CCn3c(=O)sc4c3nc(N)n3nc(-c5ccco5)nc43)CC2)c(F)c1` [Compound 56, 4-(4-(2-(5-amino-8-(furan-2-yl)-2-oxothiazolo[5,4-e][1,2,4]triazolo[1,5-c]pyrimidin-3(2H)-yl)ethyl)piperazin-1-yl)-N-(2-(dimethylamino)ethyl)-3-fluoro-N-methylbenzamide] were 0.2 nM, 1 nM, 25 nM and 1750.
Taken in the same sequence, the figures for `C[C@H](CN(C)C)NC(=O)c1ccc(N2CCN(CCn3c(=O)sc4c3nc(N)n3nc(-c5ccco5)nc43)CC2)c(F)c1` [Compound 57, (R)-4-(4-(2-(5-amino-8-(furan-2-yl)-2-oxothiazolo[5,4-e][1,2,4]triazolo[1,5-c]pyrimidin-3(2H)-yl)ethyl)piperazin-1-yl)-N-(1-(dimethylamino)propan-2-yl)-3-fluorobenzamide] were 0.2 nM, 2 nM, 56 nM and 2200.
On to `CNCCNC(=O)COc1cc(N2CCN(CCn3c(=O)sc4c3nc(N)n3nc(-c5ccco5)nc43)CC2)c(F)cc1F` [Compound 62, 2-(5-(4-(2-(5-amino-8-(furan-2-yl)-2-oxothiazolo[5,4-e][1,2,4]triazolo[1,5-c]pyrimidin-3(2H)-yl)ethyl)piperazin-1-yl)-2,4-difluorophenoxy)-N-(2-(methylamino)ethyl)acetamide], for which the IC50 came to 0.5 nM in data set [1] (setting [3]), 1 nM in data set [1] (setting [4]) and 21 nM in data set [1] (setting [5]). Also, the efflux ratio at 120 min, 2 μM in data set [2] is 23.
Consider `CN(C)CCNC(=O)COc1cc(N2CCN(CCn3c(=O)sc4c3nc(N)n3nc(-c5ccco5)nc43)CC2)c(F)cc1F` [Compound 63, 2-(5-(4-(2-(5-amino-8-(furan-2-yl)-2-oxothiazolo[5,4-e][1,2,4]triazolo[1,5-c]pyrimidin-3(2H)-yl)ethyl)piperazin-1-yl)-2,4-difluorophenoxy)-N-(2-(dimethylamino)ethyl)acetamide], for which the IC50 in data set [1] (setting [3]) came to 0.3 nM; in data set [1] (setting [4]), 1 nM; in data set [1] (setting [5]), 12 nM. Further, the efflux ratio at 120 min, 2 μM in data set [2] worked out at 264.
The like results for `CN(C)CCN(C)C(=O)c1cc(N2CCN(CCn3c(=O)sc4c3nc(N)n3nc(-c5ccco5)nc43)CC2)c(F)cc1F` [Compound 64, 5-(4-(2-(5-amino-8-(furan-2-yl)-2-oxothiazolo[5,4-e][1,2,4]triazolo[1,5-c]pyrimidin-3(2H)-yl)ethyl)piperazin-1-yl)-N-(2-(dimethylamino)ethyl)-2,4-difluoro-N-methylbenzamide] were, in that order, 0.6 nM, 1 nM, 36 nM and 60.
`Nc1nc2c(sc(=O)n2CCN2CCN(c3cc(OCc4nnn[nH]4)c(F)cc3F)CC2)c2nc(-c3ccco3)nn12` [Compound 66, 3-(2-(4-(5-((1H-tetrazol-5-yl)methoxy)-2,4-difluorophenyl)piperazin-1-yl)ethyl)-5-amino-8-(furan-2-yl)thiazolo[5,4-e][1,2,4]triazolo[1,5-c]pyrimidin-2(3H)-one]: the IC50 in data set [1] (setting [3]) came to 0.8 nM; in data set [1] (setting [4]), 13 nM; in data set [1] (setting [5]), 543 nM. In addition, in data set [2], the efflux ratio at 120 min, 2 μM was 1010.
The like results for `Cn1cnc(COc2ccc(N3CCN(CCn4c(=O)sc5c4nc(N)n4nc(-c6ccco6)nc54)CC3)c(F)c2)n1` [Compound 67, 5-amino-3-(2-(4-(2-fluoro-4-((1-methyl-1H-1,2,4-triazol-3-yl)methoxy)phenyl)piperazin-1-yl)ethyl)-8-(furan-2-yl)thiazolo[5,4-e][1,2,4]triazolo[1,5-c]pyrimidin-2(3H)-one] were, in that order, 0.6 nM, 9 nM, 378 nM and 15.
Turning to `Cn1cnc(COc2cc(N3CCN(CCn4c(=O)sc5c4nc(N)n4nc(-c6ccco6)nc54)CC3)c(F)cc2F)n1` [Compound 68, 5-amino-3-(2-(4-(2,4-difluoro-5-((1-methyl-1H-1,2,4-triazol-3-yl)methoxy)phenyl)piperazin-1-yl)ethyl)-8-(furan-2-yl)thiazolo[5,4-e][1,2,4]triazolo[1,5-c]pyrimidin-2(3H)-one], the IC50 in data set [1] (setting [3]) came to 14 nM; in data set [1] (setting [4]) it was 123 nM; in data set [1] (setting [5]), 2700 nM. Further, the efflux ratio at 120 min, 2 μM in data set [2] worked out at 108.
Taken in the same sequence, the figures for `CN(CCNC(=O)c1ccc(N2CCN(CCn3c(=O)sc4c3nc(N)n3nc(-c5ccco5)nc43)CC2)c(F)c1)C1COC1` [Compound 69, 4-(4-(2-(5-amino-8-(furan-2-yl)-2-oxothiazolo[5,4-e][1,2,4]triazolo[1,5-c]pyrimidin-3(2H)-yl)ethyl)piperazin-1-yl)-3-fluoro-N-(2-(methyl(oxetan-3-yl)amino)ethyl)benzamide] were 0.5 nM, 5 nM, 211 nM and 201.
The like results for `Nc1nc2c(sc(=O)n2CCN2CCN(c3ccc(C(=O)NCCNCCO)cc3F)CC2)c2nc(-c3ccco3)nn12` [Compound 70, 4-(4-(2-(5-amino-8-(furan-2-yl)-2-oxothiazolo[5,4-e][1,2,4]triazolo[1,5-c]pyrimidin-3(2H)-yl)ethyl)piperazin-1-yl)-3-fluoro-N-(2-((2-hydroxyethyl)amino)ethyl)benzamide] were, in that order, 0.6 nM, 3 nM, 124 nM and 53.
Regarding `NCC(=O)NCCOc1ccc(N2CCN(CCn3c(=O)sc4c3nc(N)n3nc(-c5ccco5)nc43)CC2)c(F)c1` [Compound 71, 2-amino-N-(2-(4-(4-(2-(5-amino-8-(furan-2-yl)-2-oxothiazolo[5,4-e][1,2,4]triazolo[1,5-c]pyrimidin-3(2H)-yl)ethyl)piperazin-1-yl)-3-fluorophenoxy)ethyl)acetamide], the IC50 in data set [1] (setting [3]) stood at 0.4 nM; in data set [1] (setting [4]) it was 3 nM; in data set [1] (setting [5]), 79 nM. In addition, the efflux ratio at 120 min, 2 μM in data set [2] was 28.
Taken in the same sequence, the figures for `CC(C)[C@H](N)C(=O)NCCOc1ccc(N2CCN(CCn3c(=O)sc4c3nc(N)n3nc(-c5ccco5)nc43)CC2)c(F)c1` [Compound 72, (S)-2-amino-N-(2-(4-(4-(2-(5-amino-8-(furan-2-yl)-2-oxothiazolo[5,4-e][1,2,4]triazolo[1,5-c]pyrimidin-3(2H)-yl)ethyl)piperazin-1-yl)-3-fluorophenoxy)ethyl)-3-methylbutanamide] were 1 nM, 3 nM, 86 nM and 21.
For `N#CCOc1cc(N2CCN(CCn3c(=O)sc4c3nc(N)n3nc(-c5ccco5)nc43)CC2)c(F)cc1F` [Compound 74, 2-(5-(4-(2-(5-amino-8-(furan-2-yl)-2-oxothiazolo[5,4-e][1,2,4]triazolo[1,5-c]pyrimidin-3(2H)-yl)ethyl)piperazin-1-yl)-2,4-difluorophenoxy)acetonitrile], the values for the half-inhibitory concentration (IC50) in data set [1] (setting [3]), in data set [1] (setting [4]) and in data set [1] (setting [5]) were 1.2 nM, 20 nM and 495 nM, respectively. Besides, the efflux ratio at 120 min, 2 μM in data set [2] was found to be 4.
As to `CS(=O)(=O)CCOc1cc(N2CCN(CCn3c(=O)sc4c3nc(N)n3nc(-c5ccco5)nc43)CC2)c(F)cc1F` [Compound 77, 5-amino-3-(2-(4-(2,4-difluoro-5-(2-(methylsulfonyl)ethoxy)phenyl)piperazin-1-yl)ethyl)-8-(furan-2-yl)thiazolo[5,4-e][1,2,4]triazolo[1,5-c]pyrimidin-2(3H)-one], the IC50 in data set [1] (setting [3]) stood at 0.5 nM; in data set [1] (setting [4]) it was 3 nM; in data set [1] (setting [5]), 158 nM. For the same compound, in data set [2], the efflux ratio at 120 min, 2 μM came out at 43.
Take `CS(=O)(=O)CCOc1ccc(N2CCN(CCn3c(=O)sc4c3nc(N)n3nc(-c5ccco5)nc43)CC2)c(F)c1` [Compound 78, 5-amino-3-(2-(4-(2-fluoro-4-(2-(methylsulfonyl)ethoxy)phenyl)piperazin-1-yl)ethyl)-8-(furan-2-yl)thiazolo[5,4-e][1,2,4]triazolo[1,5-c]pyrimidin-2(3H)-one]: the figures for the IC50 in data set [1] (setting [3]) and in data set [1] (setting [5]) were 0.6 nM and 130 nM, respectively. For the same compound, the efflux ratio at 120 min, 2 μM in data set [2] came to 45.
Taken in the same sequence, the figures for `Nc1nc2c(sc(=O)n2CCN2CCN(c3cc4c(cc3F)NC(=O)C4)CC2)c2nc(-c3ccco3)nn12` [Compound 79, 5-amino-3-(2-(4-(6-fluoro-2-oxoindolin-5-yl)piperazin-1-yl)ethyl)-8-(furan-2-yl)thiazolo[5,4-e][1,2,4]triazolo[1,5-c]pyrimidin-2(3H)-one] were 0.3 nM, 77 nM and 47.
